The values below are quoted from earlier work in publication PMC5520971 (Organic & biomolecular chemistry, 2017).

Data set [1] concerns hepatocellular carcinoma cells. Conditions: ref [18].
For data set [2], the system named is hepatocellular carcinoma cells. The settings on record: ref [18]. This is another data set of the same source.

Take `CC1=C(/C=C/C(C)=C/C=C/C(C)=C/C(=O)O)C(C)(C)CCC1` [all-trans retinoic acid]: in data set [1], the “growth of hepatocellular carcinoma cells in a mouse xenograft model” value was “selectively inhibited the growth”. In addition, the “growth of hepatocellular carcinoma cells in vitro” value in data set [2] is reported as “selectively inhibited the growth”.
